Reference: US7615356B2, “Ion channel assay methods” (Vertex Pharmaceuticals (San Diego) LLC, priority 2000, dated 2009)
“Also recorded” adds a separate entry of the source. Where two headings read alike, the source gives them in different places.

Assays:
[1] = biological target: endogenous NaV channels of Chinese Hamster Ovary cells (Nav 1.2a) (Cricetulus griseus, UniProt A0A8C2MK62); assay: Use-dependent block, repetitive electrical stimulation at 1 Hz, CHO cells; format: cell-based
Nav 1.2a = Nav 1.2a (Rattus norvegicus, UniProt P04775, N209D); conditions: published; cited from earlier work
Chain of Nav 1.2a (P04775 whole entry N209D): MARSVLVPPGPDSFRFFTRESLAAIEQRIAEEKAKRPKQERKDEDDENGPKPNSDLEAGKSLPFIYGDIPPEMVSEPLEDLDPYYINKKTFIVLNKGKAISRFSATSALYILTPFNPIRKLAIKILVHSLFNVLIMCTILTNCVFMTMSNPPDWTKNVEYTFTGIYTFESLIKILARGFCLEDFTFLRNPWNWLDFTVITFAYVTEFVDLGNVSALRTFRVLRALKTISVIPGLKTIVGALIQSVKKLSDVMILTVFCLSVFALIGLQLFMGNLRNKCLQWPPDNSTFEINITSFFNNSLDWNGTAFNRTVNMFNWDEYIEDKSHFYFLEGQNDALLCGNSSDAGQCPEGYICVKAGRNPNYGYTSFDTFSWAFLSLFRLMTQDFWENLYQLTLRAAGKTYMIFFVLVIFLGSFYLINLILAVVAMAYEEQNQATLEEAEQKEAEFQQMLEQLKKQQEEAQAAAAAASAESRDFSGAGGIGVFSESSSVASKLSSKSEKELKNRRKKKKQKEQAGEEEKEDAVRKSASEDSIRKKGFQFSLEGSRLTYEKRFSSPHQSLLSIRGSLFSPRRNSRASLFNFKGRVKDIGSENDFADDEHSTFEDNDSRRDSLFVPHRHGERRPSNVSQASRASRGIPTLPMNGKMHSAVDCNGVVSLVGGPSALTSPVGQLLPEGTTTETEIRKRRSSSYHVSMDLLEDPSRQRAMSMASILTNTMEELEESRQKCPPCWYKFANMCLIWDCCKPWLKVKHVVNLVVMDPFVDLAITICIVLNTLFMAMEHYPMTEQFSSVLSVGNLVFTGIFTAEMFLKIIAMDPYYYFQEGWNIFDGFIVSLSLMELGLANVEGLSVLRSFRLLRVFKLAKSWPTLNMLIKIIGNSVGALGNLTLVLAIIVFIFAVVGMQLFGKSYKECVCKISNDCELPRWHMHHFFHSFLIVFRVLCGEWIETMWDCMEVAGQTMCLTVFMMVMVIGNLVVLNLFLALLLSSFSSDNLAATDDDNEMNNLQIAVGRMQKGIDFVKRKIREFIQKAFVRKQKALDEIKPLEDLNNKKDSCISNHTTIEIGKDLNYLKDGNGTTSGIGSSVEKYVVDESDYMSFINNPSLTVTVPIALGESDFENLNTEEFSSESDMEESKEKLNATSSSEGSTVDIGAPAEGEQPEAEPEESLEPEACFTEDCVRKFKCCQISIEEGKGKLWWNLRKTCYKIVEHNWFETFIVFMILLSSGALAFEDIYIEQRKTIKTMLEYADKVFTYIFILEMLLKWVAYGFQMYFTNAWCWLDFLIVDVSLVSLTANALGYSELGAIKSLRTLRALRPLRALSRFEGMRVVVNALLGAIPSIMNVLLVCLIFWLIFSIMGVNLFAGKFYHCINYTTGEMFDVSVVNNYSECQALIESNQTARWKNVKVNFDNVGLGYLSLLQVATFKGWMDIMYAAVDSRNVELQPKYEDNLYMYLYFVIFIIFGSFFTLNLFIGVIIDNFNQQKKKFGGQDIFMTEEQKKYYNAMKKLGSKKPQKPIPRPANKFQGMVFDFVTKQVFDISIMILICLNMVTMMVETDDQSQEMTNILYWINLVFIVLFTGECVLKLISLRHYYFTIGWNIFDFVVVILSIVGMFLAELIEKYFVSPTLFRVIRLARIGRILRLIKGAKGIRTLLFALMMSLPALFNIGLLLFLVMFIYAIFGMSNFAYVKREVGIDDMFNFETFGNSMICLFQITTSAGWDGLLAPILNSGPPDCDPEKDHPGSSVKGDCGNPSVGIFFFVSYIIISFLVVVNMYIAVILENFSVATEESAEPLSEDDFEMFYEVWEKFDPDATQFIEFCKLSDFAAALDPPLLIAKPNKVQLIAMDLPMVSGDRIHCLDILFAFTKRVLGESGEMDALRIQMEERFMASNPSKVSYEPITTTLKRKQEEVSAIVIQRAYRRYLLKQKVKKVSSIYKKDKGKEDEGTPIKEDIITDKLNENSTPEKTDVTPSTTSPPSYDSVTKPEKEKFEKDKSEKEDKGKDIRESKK

[2] = tested on: TTX-resistant Nav channels; conditions: cited from earlier work
Nav1.8 [3] = biological target: Nav1.8 (UniProt Q9Y5Y9); assay: Induced spontaneous firing of Nav1.8 expressing cells, high-frequency monophasic pulses; format: cell-based
HL5 cardiac muscle cells = format: cell-based
[4] = biological target: voltage dependent sodium channel (NaV1) endogenously expressed in wild type CHO cells (Cricetulus griseus, UniProt A0A8C2MK62)
Chain of voltage dependent sodium channel (NaV1) endogenously expressed in wild type CHO cells (A0A8C2MK62 1-2006): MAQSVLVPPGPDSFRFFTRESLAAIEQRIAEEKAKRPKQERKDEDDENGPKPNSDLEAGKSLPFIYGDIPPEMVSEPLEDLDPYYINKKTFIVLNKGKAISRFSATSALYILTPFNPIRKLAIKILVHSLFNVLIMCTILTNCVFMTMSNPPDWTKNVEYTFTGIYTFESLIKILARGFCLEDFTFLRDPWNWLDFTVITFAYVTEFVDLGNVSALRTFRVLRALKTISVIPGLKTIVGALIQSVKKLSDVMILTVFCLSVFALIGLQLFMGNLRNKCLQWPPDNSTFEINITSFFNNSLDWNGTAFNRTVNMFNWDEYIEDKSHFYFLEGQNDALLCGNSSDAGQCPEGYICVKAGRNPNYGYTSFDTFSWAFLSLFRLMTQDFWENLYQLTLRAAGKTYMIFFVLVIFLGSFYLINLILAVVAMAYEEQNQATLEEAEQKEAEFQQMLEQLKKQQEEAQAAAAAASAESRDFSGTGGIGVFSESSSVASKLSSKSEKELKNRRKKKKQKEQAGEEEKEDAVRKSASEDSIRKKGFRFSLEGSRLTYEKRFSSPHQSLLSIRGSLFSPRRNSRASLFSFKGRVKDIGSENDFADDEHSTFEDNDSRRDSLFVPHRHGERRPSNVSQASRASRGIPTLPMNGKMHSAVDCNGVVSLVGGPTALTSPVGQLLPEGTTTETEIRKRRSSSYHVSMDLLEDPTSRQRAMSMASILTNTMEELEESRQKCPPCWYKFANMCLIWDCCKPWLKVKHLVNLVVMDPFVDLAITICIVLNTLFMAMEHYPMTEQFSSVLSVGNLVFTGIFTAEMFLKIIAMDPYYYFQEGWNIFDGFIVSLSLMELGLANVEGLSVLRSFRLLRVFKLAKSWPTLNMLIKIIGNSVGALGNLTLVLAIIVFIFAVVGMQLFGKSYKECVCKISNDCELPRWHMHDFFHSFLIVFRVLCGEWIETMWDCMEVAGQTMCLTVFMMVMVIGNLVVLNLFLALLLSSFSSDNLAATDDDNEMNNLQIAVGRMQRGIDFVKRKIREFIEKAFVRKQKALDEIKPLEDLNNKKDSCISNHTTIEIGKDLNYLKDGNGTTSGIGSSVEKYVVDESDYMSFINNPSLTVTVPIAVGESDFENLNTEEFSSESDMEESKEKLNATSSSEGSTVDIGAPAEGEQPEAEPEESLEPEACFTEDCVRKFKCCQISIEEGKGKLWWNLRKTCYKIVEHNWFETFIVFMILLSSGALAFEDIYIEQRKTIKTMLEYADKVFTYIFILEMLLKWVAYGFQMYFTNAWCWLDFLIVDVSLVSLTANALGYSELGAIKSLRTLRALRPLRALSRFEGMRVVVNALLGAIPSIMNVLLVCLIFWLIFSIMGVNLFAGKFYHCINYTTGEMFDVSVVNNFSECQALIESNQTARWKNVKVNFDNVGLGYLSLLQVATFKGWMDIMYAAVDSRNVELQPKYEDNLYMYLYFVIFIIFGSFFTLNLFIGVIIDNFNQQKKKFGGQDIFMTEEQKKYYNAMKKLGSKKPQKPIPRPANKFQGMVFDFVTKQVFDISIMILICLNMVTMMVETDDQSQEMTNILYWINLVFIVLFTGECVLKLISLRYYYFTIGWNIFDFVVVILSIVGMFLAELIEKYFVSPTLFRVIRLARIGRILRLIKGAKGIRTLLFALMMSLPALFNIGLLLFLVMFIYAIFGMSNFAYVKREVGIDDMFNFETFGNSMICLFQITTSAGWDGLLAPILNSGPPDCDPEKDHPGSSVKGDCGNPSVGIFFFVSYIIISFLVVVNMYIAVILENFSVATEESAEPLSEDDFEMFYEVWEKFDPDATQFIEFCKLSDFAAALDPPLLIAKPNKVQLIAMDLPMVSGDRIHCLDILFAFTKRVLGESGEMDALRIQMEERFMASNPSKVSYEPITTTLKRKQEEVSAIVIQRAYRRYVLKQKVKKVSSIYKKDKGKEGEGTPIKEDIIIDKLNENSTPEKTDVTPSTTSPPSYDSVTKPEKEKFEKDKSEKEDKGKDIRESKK

Nav1.8 [5] = biological target: Nav1.8 (UniProt Q9Y5Y9); assay: Paired-pulse train stimulation, recovery from block, cells expressing Nav1.8; conditions: for IC50: approximate, from previous experiment
[6] = tested on: sodium channels in dorsal root ganglion (DRG) neurons; assay: Dorsal root ganglion neuron assay, electrical stimulation at different external potassium; format: cell-based, rat; conditions: before and after addition of 16 mM potassium
Method: We have developed a dorsal root ganglion (DRG) neuron assay on the electrical stimulation with optical detection platform that allows us to detect and quantify voltage dependent blockers of the sodium channels in these neurons. The DRG neurons were dissociated from neonatal rat pups and stained with FRET voltage sensing dyes. The neurons were then placed in the middle of the well on a 96 well plate and preincubated with varying concentrations of the test compound. Electrical stimulation was applied and the resulting response recorded by the plate reader. Dose response plots were then constructed for each compound tested. Increased levels of potassium were then added to depolarize the neurons and move more of the sodium channels into the inactivated state. […] This estimates the degree of voltage or state dependence for these compounds. […] As shown, the high potassium levels depolarize the cells. The compounds' block is voltage dependent, a type of use-dependent activity. […] This example illustrates also the use of this method with primary neurons.

NaV4 sodium channel = format: cell-based; conditions: HEK-293 NaV4; 33 V/cm, 10 ms/phase biphasic, 15 Hz burst for 1.5 seconds; read-out: estimated EC50 (Hill function fit)
Source text: For this experiment, electrical stimulation parameters were E=33 V/cm, 10 ms/phase biphasic stimulation, 15 Hz burst for 1.5 seconds.
To determine whether the present method is generally applicable to a wide range of different sodium channels, HEK-293 cells were stably transfected with another voltage dependent sodium channel, hereinafter referred to as NaV4. These cells were transfected, selected and loaded with FRET dyes as described in section VI and Example 8.

[7] = tested on: voltage-activated chloride and potassium channels of wild-type HEK-293 cells
N-type calcium channel = N-type calcium channel (Homo sapiens, UniProt Q00975); assay: Hexyl oxonol assay for use-dependent blockers of CaV; format: cell-based; conditions: 5 μM
Method: Assays can also be developed using fast membrane potential sensors, such as DISBAC6(3) and CC2-DMPE voltage-sensitive FRET probes, to detect use-dependent compounds for voltage-gated Ca targets. The following illustrative example is for an N-type calcium channel using hardware compatible with 96 well plates.
Prepare a solution of 2× CC2DMPE and DISBAC6(3) by Vortexing together 10 mM CC2DMPE (in DMSO) and 10 mM DISBAC6(3) (in DMSO) with an equivalent volume of 10% pluronic (in DMSO). Vortex in required amount of bath. Each cell plate will require 5 ml of this solution. Wash plate with a plate washer leaving a residual volume of 50 μl. Add 50 μL of 2× CC2DMPE to wells. Resulting concentrations of dyes will be 4 μM CC2-DMPE and 1.25 μM DISBAC6(3). Stain for 30 minutes in the dark at RT. The test compounds are prepared at 2× concentration in extracellular ringer solution and added to wells containing stained cells. Stimulation parameters such as stimulation frequency, pulse duration, stimulation voltage can be easily manipulated to elicit desired responses.
FIG. 40 illustrates an example of how a use-dependent compound such as mibefradil can be detected using this hexyl assay.

[8] = biological target: potassium inward rectifier channel IRK1 (Rattus norvegicus, UniProt Q64273)
Chain of potassium inward rectifier channel IRK1 (Q64273 whole entry): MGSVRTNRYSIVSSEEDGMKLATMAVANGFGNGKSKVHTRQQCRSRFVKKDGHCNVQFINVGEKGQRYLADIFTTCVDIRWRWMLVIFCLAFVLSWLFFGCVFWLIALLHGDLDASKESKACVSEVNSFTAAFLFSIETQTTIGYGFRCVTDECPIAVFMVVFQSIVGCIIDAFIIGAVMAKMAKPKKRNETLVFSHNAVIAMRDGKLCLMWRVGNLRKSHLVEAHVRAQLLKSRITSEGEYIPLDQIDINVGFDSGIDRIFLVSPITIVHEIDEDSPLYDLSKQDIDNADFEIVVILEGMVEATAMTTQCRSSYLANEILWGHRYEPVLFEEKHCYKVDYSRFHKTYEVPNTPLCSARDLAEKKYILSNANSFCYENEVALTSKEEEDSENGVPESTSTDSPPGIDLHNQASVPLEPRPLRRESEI

[9] = 1 Hz stimulation, 1st peak response
[10] = 1 Hz stimulation, 20th peak response
[11] = read-out: IC50 @ 1st peak, 1 Hz stimulation, 1st peak response
[12] = read-out: IC50 @ 20th peak, 1 Hz stimulation, 20th peak response

Chain of endogenous NaV channels of Chinese Hamster Ovary cells (Nav 1.2a) (A0A8C2MK62 entry or part of it): as the sequence (A0A8C2MK62 1-2006) above

With `Cc1cccc(C)c1OCC(C)N` (centres unmarked) [mexiletine] the “Hill coeff. @ 1st peak” value [1] was 3.07, the “Hill coeff. @ 20th peak” value [1] was 0.98 and the “UDI (1 Hz), ratio of IC50(1st response) over IC50(20th response)” value (“UDI (1 Hz), ratio of IC50(1st response)” for short) [1] was 2.59. The IC50 ([1]; read-out: IC50 @ 1st peak) was 58.1 ± 11 µM, the IC50 ([1]; read-out: IC50 @ 20th peak) was 22.5 ± 5.31 µM and the IC50 (Nav 1.2a) was 21 to 533 µM.

In the case of `CCN(CC)CC(=O)Nc1c(C)cccc1C` [Lidocaine], the “firing rate in neuron slice preparation” value [2] is listed as “slower firing rate”, the “use-dependent block of endogenous NaV channels” value [1] is listed as “only minor or no use-dependent block” and the “effect on induced spontaneous firing” value (Nav1.8 [3]) is listed as “gradually increased the interspike interval”.

For `COC(=O)[C@@H]1[C@H]2C[C@H]3c4[nH]c5ccccc5c4CCN3C[C@@H]2CC[C@@H]1O` [yohimbine], the “UDI (1 Hz), ratio of IC50(1st response)” value ([1]; 1 Hz for 20 seconds) was 5.67, the “Hill coeff. @ 1st peak” value [1, 9] was 2.05 and the IC50 ([1]; 1 Hz stimulation, 1st peak response, read-out: IC50 @ 1st peak) was 26.7 ± 7.26 µM. For the same compound, the “Hill coeff. @ 20th peak” value [1, 10] was 0.99 and the IC50 ([1]; 1 Hz stimulation, 20th peak response, read-out: IC50 @ 20th peak) was 4.7 ± 1.94 µM.

With `NC1=N[C@H](O)[C@H]2[C@H]3O[C@]4(O)O[C@@H]([C@@H](O)[C@@]2(N1)[C@@H]4O)[C@]3(O)CO` [TTX, tetrodotoxin] the “use-dependent block of endogenous NaV channels” value [1] was “only minor or no use-dependent block; also recorded: least use-dependent”, the “effect on the positive response” value (HL5 cardiac muscle cells) was “partially blocks” and the “sustained signal above 50 V/cm” value (HL5 cardiac muscle cells) was “unaffected”. The Hill coefficient [4] was 1.47, the “block of the effect of electrical stimulation” value [4] was “completely block” and the EC50 ([4]; read-out: EC50 (Hill function fit to dose response)) was 0.009 µM. The EC50 (NaV3 sodium channel; read-out: EC50 (Hill function fit)) was 0.025 µM.

With `CCCCNc1ccc(C(=O)OCCN(C)C)cc1` [tetracaine] the “time to recover from use-dependent block” value (Nav1.8 [5]; 4 μM) was “approximately 1000 ms”, the IC50 (Nav1.8 [5]) was ~4 µM and the “shift of dose response curve after elevated potassium” value [6] was “leftward shifted”. For the same compound, the “UDI (1 Hz), ratio of IC50(1st response)” value ([1]; 1 Hz for 20 seconds) was 8.40, the “use-dependent block of endogenous NaV channels” value ([1]; 1 Hz for 20 seconds, in words) was “decreased ratio of last peak response over first peak response and more additional block than TTX and most” and the “Hill coeff. @ 1st peak” value [1, 9] was 1.81. The “Hill coeff. @ 20th peak” value [1, 10] was 0.66, the IC50 [1, 11] was 2.77 ± 1.23 µM and the IC50 [1, 12] was 0.33 ± 0.2 µM. The EC50 (NaV3 sodium channel; read-out: EC50 (fit to dose-response curve), HEK-293 NaV3, 33 V/cm, 10 ms/phase biphasic, 15 Hz burst for 1.5 seconds) was 11 µM and the EC50 (NaV4 sodium channel) was 35 µM.

For `CC[N+](CC)(CC)CC` [TEA, Tetraethylammonium], the “effect on the negative voltage response” value [7] was “partially blocks”.

In the case of `COCC(=O)O[C@]1(CCN(C)CCCc2nc3ccccc3[nH]2)CCc2cc(F)ccc2[C@@H]1C(C)C` [mibefradil], the “change in response lineshape” value (N-type calcium channel) is reported as “use-dependent block”.

With `CN(C)CCC=C1c2ccccc2CCc2ccccc21` [amitriptyline] the “Hill coeff. @ 1st peak” value [1] was 2.65, the “Hill coeff. @ 20th peak” value [1] was 1.07 and the “UDI (1 Hz), ratio of IC50(1st response)” value [1] was 3.24. For the same compound, the IC50 ([1]; read-out: IC50 @ 1st peak) was 5.19 ± 1.57 µM, the IC50 ([1]; read-out: IC50 @ 20th peak) was 1.6 ± 0.38 µM and the IC50 (Nav 1.2a) was 5.5 µM.

In the case of `[Ba+2].[Cl-].[Cl-]` [barium chloride], the “voltage change during stimulation with block” value [8] is reported as “no detectable voltage change”.

With `Nc1nnc(-c2cccc(Cl)c2Cl)c(N)n1` [lamotrigine] the IC50 (Nav1.8 [5]) was ~50 µM, the “shift of dose response curve after elevated potassium” value [6] was “leftward shifted” and the “effect on induced spontaneous firing” value (Nav1.8 [3]) was “gradually increased the interspike interval”.

In the case of `CCCCN1CCCCC1C(=O)Nc1c(C)cccc1C` (centres unmarked) [Bupivacaine], the “firing rate in neuron slice preparation” value [2] is given as “slower firing rate”.

In the case of `CCCCOc1cc(C(=O)NCCN(CC)CC)c2ccccc2n1` [dibucaine], the “UDI (1 Hz), ratio of IC50(1st response)” value ([1]; 1 Hz for 20 seconds) is reported as 2.36, the “Hill coeff. @ 1st peak” value [1, 9] is reported as 2.35 and the “Hill coeff. @ 20th peak” value [1, 10] is reported as 1.19. It also gave an IC50 [1, 11] of 1.19 ± 0.22 µM and an IC50 [1, 12] of 0.51 ± 0.11 µM.
